Experimental data as given in patent publication US12617795B2, “Substituted 6,7-dihydro-5H-pyrrolo[3,4-d]pyrimidines, 5,7-dihydrofuro[3,4-d]pyrimidines, and pyrido[2,3-d]pyrimidines as KCC2 modulators” (Astrazeneca AB, priority 2020, dated 2026).
pEC50: −log10 of the molar value.

Target: T1, KCC2 (Homo sapiens, UniProt Q9H2X9)
T1 construct: expressed in transfected cells; host or cells: HEK293 cells electroporated (Maxcyte STX) with the pcDNA3.1 KCC2 plasmid
T1 sequence (Q9H2X9 1-1139): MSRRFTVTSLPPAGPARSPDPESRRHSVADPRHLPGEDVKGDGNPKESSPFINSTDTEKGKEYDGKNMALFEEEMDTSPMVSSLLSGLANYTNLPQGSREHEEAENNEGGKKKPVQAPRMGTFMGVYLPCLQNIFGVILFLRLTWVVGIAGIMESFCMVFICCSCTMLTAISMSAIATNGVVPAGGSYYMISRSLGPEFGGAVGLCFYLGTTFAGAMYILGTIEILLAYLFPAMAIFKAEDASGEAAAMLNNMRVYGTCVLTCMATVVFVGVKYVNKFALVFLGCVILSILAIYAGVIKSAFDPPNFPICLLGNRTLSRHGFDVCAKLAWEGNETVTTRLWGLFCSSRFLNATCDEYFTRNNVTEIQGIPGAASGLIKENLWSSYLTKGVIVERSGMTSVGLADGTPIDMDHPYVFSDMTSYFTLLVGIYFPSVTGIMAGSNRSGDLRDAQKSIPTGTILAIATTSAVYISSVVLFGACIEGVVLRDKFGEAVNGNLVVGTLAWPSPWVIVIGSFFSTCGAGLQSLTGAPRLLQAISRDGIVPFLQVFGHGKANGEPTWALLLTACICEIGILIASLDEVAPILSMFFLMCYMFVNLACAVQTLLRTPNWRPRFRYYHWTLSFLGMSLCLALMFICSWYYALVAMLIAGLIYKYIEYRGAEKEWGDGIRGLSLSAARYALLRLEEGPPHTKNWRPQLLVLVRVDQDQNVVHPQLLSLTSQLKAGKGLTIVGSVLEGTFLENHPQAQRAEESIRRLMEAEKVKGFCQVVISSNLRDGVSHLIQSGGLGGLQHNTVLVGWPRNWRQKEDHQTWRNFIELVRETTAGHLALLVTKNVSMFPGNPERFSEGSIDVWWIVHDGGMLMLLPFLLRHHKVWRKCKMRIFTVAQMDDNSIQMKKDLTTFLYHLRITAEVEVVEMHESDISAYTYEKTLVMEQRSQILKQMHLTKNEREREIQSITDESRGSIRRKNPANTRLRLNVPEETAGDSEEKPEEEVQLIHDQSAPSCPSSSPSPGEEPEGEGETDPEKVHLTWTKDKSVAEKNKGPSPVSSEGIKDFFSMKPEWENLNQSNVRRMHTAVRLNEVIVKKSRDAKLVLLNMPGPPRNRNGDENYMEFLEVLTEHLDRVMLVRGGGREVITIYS
Assay: KCC2 thallium transport FLIPR-based assay (Tl+ influx in HEK293 cells expressing KCC2)
Format: cell-based
Conditions: 90 min compound incubation at RT, thallium flux at 120 s used to determine EC50
Method: A thallium transport FLIPR-based assay was used to measure the ability of compounds to activate KCC2. KCC2 activity is assessed by measuring KCC2-dependent Tl^+ influx in a KCC2-expressing cell. The assay protocol was based on those described by Delpire et al (Proc Natl Acad Sci USA. 2009 Mar. 31; 106(13): 5383-5388) and Zhang et al (Journal of Biomolecular Screening 15(2): 2010).
KCC2 was synthesised and codon optimised by GeneArt based on the Uniprot sequence Q9H2X9. The final sequence was subcloned into pcDNA3.1.
HEK293 cells were grown in 10 layer cell stacks at 37° C., 5% CO2, in DMEM, 10% fetal calf serum and 2 mM Glutamine. The cells were detached by removing the media and washing the cell stack with 100 ml of PBS. The PBS was removed and 100 ml of 1× TrypLE was added and the cell stack returned to 37° C. for 5 min. The detached cells were then counted in a Vi Cell counter and spun for 10 min at 1250 rpm in a Sorval Legend centrifuge. The cells were diluted down in Maxcyte electroporation buffer at 4× the final concentration and spun as before. The cell pellet was resuspended at 1×10^8/cells per ml and electroporated in a Maxcyte Cl 2.2 bag on a Maxcyte STX machine via the HEK293 programme with 200 ug/ml of plasmid DNA. The cells were then allowed to recover for 30 min before adding to 500 ml of PBS and then counted again on the Vi Cell. The cells were then frozen down in planer controlled rate freeze in 90% complete media, 10% DMSO.
All reagents were dispensed using a Mulitdrop Combi unless stated otherwise. All FluXOR Invitrogen propriety buffer compositions are mentioned in tables below.
HEK293 KCC2 cells were harvested at a density of 3.33×10^5 cells/mL in complete media (DMEM, Sigma, D6546, 10% fetal calf serum and 1% Glutamax) and 30 μL per well seeded into 384-well PDL coated black-clear plates (Corning, 354663). Leave cells at RT for 20 mins to settle before incubating for 48 h at 37° C., 5% CO2. Following incubation, perform three wash steps in HBSS (Sigma, H6648) using a Biotek cell washer with the final aspiration leaving 20 μL HBSS residual volume in each well. A further 20 μL per well of thallium loading dye is then added (1 h, RT, protect from light). 5 μL of test compounds (100 μM top concentration, 1:2 dilutions, 12 point curve) were added using the FLIPR TETRA and incubated at RT for 90 min in the dark. Following compound incubation, the thallium flux response is read on FLIPR TETRA (ex. 515-575 nm) which is initiated by FLIRR TETRA dispensing 5 μL stimulus buffer into each well. Recordings are measured every 1 second for 120 seconds. Thallium flux at 120 s used to determine EC50.
Compound buffer: Assay buffer with 1 μL of bumetanide per 10 ml.

With CCCCCc1ccc(Nc2nc(N3CCO[C@H](C)C3)nc3c2CN(C(C)C)C3=O)cc1 [Example 55, 2-[(2R)-2-methylmorpholin-4-yl]-4-[(4-pentylphenyl)amino]-6-(propan-2-yl)-5,6-dihydro-7H-pyrrolo[3,4-d]pyrimidin-7-one] as the molecule, how does the pEC50 read?
The pEC50 was 5.64.

CC(C)N1Cc2c(Nc3ccc(-c4cccs4)cc3)nc(N3CCOCC3)nc2C1=O [Example 113, 2-(morpholin-4-yl)-6-(propan-2-yl)-4-{[4-(thiophen-2-yl)phenyl]amino}-5,6-dihydro-7H-pyrrolo[3,4-d]pyrimidin-7-one] was tested. Which pEC50 did it give?
The pEC50 was 5.32.

How did the pEC50 turn out when COC1CCN(c2nc(Nc3ccc(C4CCCCC4)cc3)c3c(n2)C(=O)N(C(C)C)C3)C1 (centres unmarked) [Example 26, 4-[(4-cyclohexylphenyl)amino]-2-(3-methoxypyrrolidin-1-yl)-6-(propan-2-yl)-5,6-dihydro-7H-pyrrolo[3,4-d]pyrimidin-7-one] was run?
The pEC50 was 5.46.

CCC(C)c1ccc(Nc2nc(N3CCO[C@H](C)C3)nc3c2CN(C(C)C)C3=O)cc1 (stereo partly drawn) [Example 56, 4-{[4-(butan-2-yl)phenyl]amino}-2-[(2R)-2-methylmorpholin-4-yl]-6-(propan-2-yl)-5,6-dihydro-7H-pyrrolo[3,4-d]pyrimidin-7-one] was tested. Which pEC50 did it give?
Its pEC50 is 5.48.

CC(C)N1Cc2c(Nc3ccc(C4CCCCC4)cc3)nc(N3CCOC(CC(F)(F)F)C3)nc2C1=O (centres unmarked) [Example 16, 4-[(4-cyclohexylphenyl)amino]-6-(propan-2-yl)-2-[2-(2,2,2-trifluoroethyl)morpholin-4-yl]-5,6-dihydro-7H-pyrrolo[3,4-d]pyrimidin-7-one] was tested. Which pEC50 did it give?
Its pEC50 is 6.13.

CC1CN(c2nc(Nc3ccc(C4CCCCC4)cc3)c3c(n2)C(=O)N(C(C)C)C3)CCO1 (centres unmarked) [Example 12, 4-[(4-cyclohexylphenyl)amino]-2-(2-methylmorpholin-4-yl)-6-(propan-2-yl)-5,6-dihydro-7H-pyrrolo[3,4-d]pyrimidin-7-one] was tested. Which pEC50 did it give?
The pEC50 was 5.87.

CC(C)N1Cc2c(Nc3ccc(C4CCCCC4)cc3)nc(N3CCOC(CO)C3)nc2C1=O (centres unmarked) [Example 31, 4-[(4-cyclohexylphenyl)amino]-2-[2-(hydroxymethyl)morpholin-4-yl]-6-(propan-2-yl)-5,6-dihydro-7H-pyrrolo[3,4-d]pyrimidin-7-one] was tested. Which pEC50 did it give?
Its pEC50 is 5.32.

How did the pEC50 turn out when CC(C)c1ccc(Nc2nc(N3CCOCC3)nc3c2CN(C(C)C)C3=O)cc1 [Example 86, 2-(morpholin-4-yl)-6-(propan-2-yl)-4-{[4-(propan-2-yl)phenyl]amino}-5,6-dihydro-7H-pyrrolo[3,4-d]pyrimidin-7-one] was run?
The pEC50 was 5.23.

With CN1CCC(N2Cc3nc(N4CCOC(C5CC5)C4)nc(Nc4ccc(C5CCCCC5)cc4)c3C2)CC1 (centres unmarked) [Example 112, N-(4-cyclohexylphenyl)-2-(2-cyclopropylmorpholino)-6-(1-methylpiperidin-4-yl)-6,7-dihydro-5H-pyrrolo[3,4-d]pyrimidin-4-amine] as the molecule, how does the pEC50 read?
The pEC50 was 5.45.

With C#CCCCCCOc1ccc(-c2ccc(Nc3nc(N4CCOC(C5CC5)C4)nc4c3CN(C(C)C)C4=O)cc2)cc1 (centres unmarked) [Example 52, 2-(2-cyclopropylmorpholin-4-yl)-4-({4′-[(hept-6-yn-1-yl)oxy][1,1′-biphenyl]-4-yl}amino)-6-(propan-2-yl)-5,6-dihydro-7H-pyrrolo[3,4-d]pyrimidin-7-one] as the molecule, how does the pEC50 read?
Its pEC50 is 6.84.

How did the pEC50 turn out when CC(C)C1CN(c2nc(Nc3ccc(C4CCCCC4)cc3)c3c(n2)C(=O)N(C(C)C)C3)CCO1 (centres unmarked) [Example 18, 4-[(4-cyclohexylphenyl)amino]-6-(propan-2-yl)-2-[2-(propan-2-yl)morpholin-4-yl]-5,6-dihydro-7H-pyrrolo[3,4-d]pyrimidin-7-one] was run?
The pEC50 was 5.86.

CC(C)c1ccc(Nc2nc(N3C[C@H](C)O[C@@H](C)C3)nc3c2CN(C(C)C)C3=O)cc1 [Example 8, 2-[(2S,6S)-2,6-dimethylmorpholin-4-yl]-6-(propan-2-yl)-4-{[4-(propan-2-yl)phenyl]amino}-5,6-dihydro-7H-pyrrolo[3,4-d]pyrimidin-7-one] was tested. Which pEC50 did it give?
The pEC50 was 5.27.

How did the pEC50 turn out when CC(C)N1Cc2c(Nc3ccc(CC(F)(F)F)cc3)nc(N3CCO[C@H](C)C3)nc2C1=O [Example 65, 2-[(2R)-2-methylmorpholin-4-yl]-6-(propan-2-yl)-4-{[4-(2,2,2-trifluoroethyl)phenyl]amino}-5,6-dihydro-7H-pyrrolo[3,4-d]pyrimidin-7-one] was run?
The pEC50 was 5.12.

How did the pEC50 turn out when CC(C)N1Cc2c(Nc3ccc(C4CCCCC4)cc3)nc(-c3cnco3)nc2C1=O [Example 48, 4-[(4-cyclohexylphenyl)amino]-2-(1,3-oxazol-5-yl)-6-(propan-2-yl)-5,6-dihydro-7H-pyrrolo[3,4-d]pyrimidin-7-one] was run?
Its pEC50 is 5.20.

CC(C)N1Cc2c(Nc3ccc(-c4ccsc4)cc3)nc(N3CCOCC3)nc2C1=O [Example 114, 2-(morpholin-4-yl)-6-(propan-2-yl)-4-{[4-(thiophen-3-yl)phenyl]amino}-5,6-dihydro-7H-pyrrolo[3,4-d]pyrimidin-7-one] was tested. Which pEC50 did it give?
Its pEC50 is 5.14.

How did the pEC50 turn out when C[C@@H]1CN(c2nc3c(c(Nc4ccc(-c5ccc(OCCCCCC(F)(F)F)cc5)cc4)n2)COC3)CCO1 [Example 94, 2-[(2R)-2-methylmorpholin-4-yl]-N-{4′-[(6,6,6-trifluorohexyl)oxy][1,1′-biphenyl]-4-yl}-5,7-dihydrofuro[3,4-d]pyrimidin-4-amine] was run?
Its pEC50 is 5.89.

C[C@@H]1CN(c2nc3c(c(Nc4ccc(C5CCCCC5)cc4)n2)COC3)CCO1 [Example 90, (R)—N-(4-cyclohexylphenyl)-2-(2-methylmorpholino)-5,7-dihydrofuro[3,4-d]pyrimidin-4-amine] was tested. Which pEC50 did it give?
The pEC50 was 5.77.

With CC(C)c1ccc(Nc2nc(N3CCO[C@@H](C)C3)nc3c2CN(C(C)C)C3=O)cc1 [Example 6, 2-[(2S)-2-methylmorpholin-4-yl]-6-(propan-2-yl)-4-{[4-(propan-2-yl)phenyl]amino}-5,6-dihydro-7H-pyrrolo[3,4-d]pyrimidin-7-one] as the molecule, how does the pEC50 read?
Its pEC50 is 5.17.

How did the pEC50 turn out when CCCc1ccc(Nc2nc(N3CCO[C@H](C)C3)nc3c2CN(C(C)C)C3=O)cc1 [Example 60, 2-[(2R)-2-methylmorpholin-4-yl]-6-(propan-2-yl)-4-[(4-propylphenyl)amino]-5,6-dihydro-7H-pyrrolo[3,4-d]pyrimidin-7-one] was run?
Its pEC50 is 5.32.

CC(C)c1ccc(Nc2nc(N3CCSC3)nc3c2CN(C(C)C)C3=O)cc1 [Example 3, 6-(propan-2-yl)-4-{[4-(propan-2-yl)phenyl]amino}-2-(1,3-thiazolidin-3-yl)-5,6-dihydro-7H-pyrrolo[3,4-d]pyrimidin-7-one] was tested. Which pEC50 did it give?
Its pEC50 is 5.52.
